Measurements from US10752588B2 (The Broad Institute, Inc., priority 2014, dated 2020).

Assays:
human D2R/β-arrestin [1] = molecular target: T1, human D2R/β-arrestin (Homo sapiens (Human), UniProt P14416); assay: β-Arrestin agonist assay (PathHunter); assay type: cell-based; settings: CHO-K1 cell line expressing human D2R/β-arrestin
Procedure: (§1) The assays can be performed using proper detection reagents either prepared using routine methods known in the art or commercially available (e.g., PathHunter® β-Arrestin Detecting Kit (DiscoveRX)). Cells are grown to the necessary confluence and then detached. The cells are then centrifuged, washed, resuspended, and seeded into a container (e.g., 384-well plate). The cells are incubated (e.g., at 37° C., 5% CO2) for the appropriate period of time (e.g., 24 hours), before various compounds (e.g., a compound of the invention or a control compound) are added to the cells. After incubation of the cells with the compounds, detection reagents (e.g., a buffer containing Emerald II: Galactor-Star as provided DiscoveRX) are added to the cells. The read-out (e.g., luminescence, or fluorescence) is detected using standard equipment.
The detection reagent (9.6 μL, Buffer:Emerald II:Galactor-Star in a 19:5:1 ratio, i.e., 14.06 mL:3.7 mL:0.74 mL=18.5 mL) was then added to the agonist plates.

human D2R/β-arrestin [2] = molecular target: T1, human D2R/β-arrestin; assay: Gi/cAMP agonist assay (Lance Ultra cAMP, Forskolin); assay type: cell-based; settings: CHO-K1 cell line expressing human D2R/β-arrestin
Procedure: as §1, with “PE Lance Ultra cAMP kit (TRF0263)).” for “PathHunter® β-Arrestin Detecting Kit (DiscoveRX)).”, “Afterwards, cAMP inducing agents (e.g., Forskolin) are added to and incubated with” for “After incubation of”, “before” for “with the compounds,”, “cAMP antibody, such” for “buffer containing Emerald II: Galactor-Star”, “ULight-anti-cAMP solution)” for “provided DiscoveRX)”, “Read-out” for “The read-out”
Compounds were pin-transferred (100 nL) to the cells, and incubated for 10 min. at 37° C. […] Eu-cAMP tracer solution (100, PerkinElmer, […] in 17.64 ml kit buffer) and ULight-anti-cAMP solution (100, 120 μL antibody in 17.88 ml kit buffer) was then added to each well.

human D2R/β-arrestin [3] = molecular target: T1, human D2R/β-arrestin; assay: cell-based; settings: β-arrestin Antagonist, CHO-K1 cell line expressing human D2R/β-arrestin; quinpirole used as agonist
human D2R/β-arrestin [4] = molecular target: T1, human D2R/β-arrestin; assay: cell-based; settings: cAMP Antagonist, CHO-K1 cell line expressing human D2R/β-arrestin; quinpirole used as agonist

T1 sequence (P14416 whole entry): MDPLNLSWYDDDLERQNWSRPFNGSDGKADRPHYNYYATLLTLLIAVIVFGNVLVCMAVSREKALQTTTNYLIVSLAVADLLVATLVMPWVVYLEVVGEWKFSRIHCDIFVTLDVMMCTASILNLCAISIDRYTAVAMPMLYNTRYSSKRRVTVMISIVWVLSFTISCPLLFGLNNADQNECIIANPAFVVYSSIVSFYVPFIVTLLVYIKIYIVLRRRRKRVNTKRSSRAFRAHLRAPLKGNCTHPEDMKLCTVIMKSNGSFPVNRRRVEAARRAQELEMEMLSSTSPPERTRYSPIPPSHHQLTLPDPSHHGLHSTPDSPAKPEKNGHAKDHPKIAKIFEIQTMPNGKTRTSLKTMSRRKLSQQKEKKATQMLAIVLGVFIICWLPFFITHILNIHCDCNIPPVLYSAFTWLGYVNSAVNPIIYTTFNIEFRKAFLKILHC

With `Fc1ccc(F)c(OCCN2CCC(CNC(c3ccc(Cl)cc3)c3ccccn3)CC2)c1` (single isomer, unassigned) [Compound 89a, 1-(4-chlorophenyl)-N-((1-(2-(2,5-difluorophenoxy)ethyl)piperidin-4-yl)methyl)-1-(pyridin-2-yl)methanamine] the EC50 (human D2R/β-arrestin [1]) was greater than 30000 nM, the EC50 (human D2R/β-arrestin [2]) was greater than 30000 nM and the IC50 (human D2R/β-arrestin [3]) was 100 to 1000 nM. It also gave an IC50 (human D2R/β-arrestin [4]) of 100 to 1000 nM.
`Fc1ccc(C(NCC2CCN(CCOc3ccccc3)CC2)c2ccccn2)cc1` (stereo not drawn) [Compound 78, 1-(4-fluorophenyl)-N-((1-(2-phenoxyethyl)piperidin-4-yl)methyl)-1-(pyridin-2-yl)methanamine] showed an EC50 (human D2R/β-arrestin [1]) greater than 30000 nM, an EC50 (human D2R/β-arrestin [2]) of 100 to 1000 nM and an IC50 (human D2R/β-arrestin [3]) of 1000 to 10000 nM. It also gave an IC50 (human D2R/β-arrestin [4]) of 1000 to 10000 nM.
With `COc1cccc(C(NC(=O)C2(C)CCN(CCOc3ccccc3)CC2)c2ccccn2)c1` (stereo not drawn) [Compound 143, N-((3-methoxyphenyl)(pyridin-2-yl)methyl)-4-methyl-1-(2-phenoxyethyl)piperidine-4-carboxamide] the EC50 (human D2R/β-arrestin [1]) was 1000 to 10000 nM, the EC50 (human D2R/β-arrestin [2]) was 100 to 1000 nM and the IC50 (human D2R/β-arrestin [3]) was 1000 to 10000 nM. For the same molecule, the IC50 (human D2R/β-arrestin [4]) was greater than 30000 nM.
Work on `O=C(NC(c1ccc(Cl)cc1)c1ccccn1)C1CCN(CCCOc2ccccc2)CC1` (stereo not drawn) [Compound 62, N-((4-chlorophenyl)(pyridin-2-yl)methyl)-1-(3-phenoxypropyl)piperidine-4-carboxamide] yielded an EC50 (human D2R/β-arrestin [1]) greater than 30000 nM, an EC50 (human D2R/β-arrestin [2]) greater than 30000 nM and an IC50 (human D2R/β-arrestin [3]) of 1000 to 10000 nM. It also gave an IC50 (human D2R/β-arrestin [4]) of 100 to 1000 nM.
`COc1cccc(C(NC(=O)C2CCN(CCOc3ccccc3F)CC2)c2ccccn2)c1` (stereo not drawn) [Compound 22, 1-(2-(2-fluorophenoxy)ethyl)-N-((3-methoxyphenyl)(pyridin-2-yl)methyl) piperidine-4-carboxamide] was tested, and the EC50 (human D2R/β-arrestin [1]) was greater than 30000 nM, the EC50 (human D2R/β-arrestin [2]) was greater than 30000 nM and the IC50 (human D2R/β-arrestin [3]) was 100 to 1000 nM. The IC50 (human D2R/β-arrestin [4]) was 100 to 1000 nM.
`O=C(NC(c1ccc(Cl)cc1)c1ccccn1)C1CCN(CCOc2cccc(Cl)c2)CC1` (stereo not drawn) [Compound 1, 1-(2-(3-chlorophenoxy)ethyl)-N-((4-chlorophenyl)(pyridin-2-yl)methyl)piperidine-4-carboxamide] showed an EC50 (human D2R/β-arrestin [1]) greater than 30000 nM, an EC50 (human D2R/β-arrestin [2]) of less than 100 nM and an IC50 (human D2R/β-arrestin [3]) of 100 to 1000 nM. The IC50 (human D2R/β-arrestin [4]) was greater than 30000 nM.
`O=C(NC(c1ccc(Cl)cc1)c1ccccn1)C1CCN(CCOc2ccc(F)cc2F)CC1` (single isomer, unassigned) [Compound 115b, N-((4-chlorophenyl)(pyridin-2-yl)methyl)-1-(2-(2,4-difluorophenoxy)ethyl)piperidine-4-carboxamide] was tested, and the EC50 (human D2R/β-arrestin [1]) was greater than 30000 nM, the EC50 (human D2R/β-arrestin [2]) was greater than 30000 nM and the IC50 (human D2R/β-arrestin [3]) was 100 to 1000 nM. The IC50 (human D2R/β-arrestin [4]) was 100 to 1000 nM.
Work on `Fc1ccc(C(NCC2CCN(CCOc3ccccc3)CC2)c2ccccn2)cc1` (single isomer, unassigned) [Compound 78a, 1-(4-fluorophenyl)-N-((1-(2-phenoxyethyl)piperidin-4-yl)methyl)-1-(pyridin-2-yl)methanamine] yielded an EC50 (human D2R/β-arrestin [1]) greater than 30000 nM, an EC50 (human D2R/β-arrestin [2]) of 100 to 1000 nM and an IC50 (human D2R/β-arrestin [3]) of 1000 to 10000 nM. It also gave an IC50 (human D2R/β-arrestin [4]) of 1000 to 10000 nM.
For `Fc1ccccc1OCCN1CCC(CNC(c2ccc3c(c2)OCO3)c2ccccn2)CC1` (stereo not drawn) [Compound 139, 1-(benzo[d][1,3]dioxol-5-yl)-N-((1-(2-(2-fluorophenoxy)ethyl)piperidin-4-yl)methyl)-1-(pyridin-2-yl)methanamine], the EC50 (human D2R/β-arrestin [1]) was greater than 30000 nM, the EC50 (human D2R/β-arrestin [2]) was 1000 to 10000 nM and the IC50 (human D2R/β-arrestin [3]) was 1000 to 10000 nM. The IC50 (human D2R/β-arrestin [4]) was 100 to 1000 nM.
For `O=C(NC(c1ccccn1)c1ccccc1C(F)(F)F)C1CCN(CCOc2ccccc2)CC1` (stereo not drawn) [Compound 33, 1-(2-phenoxyethyl)-N-(pyridin-2-yl(2-(trifluoromethyl)phenyl)methyl) piperidine-4-carboxamide], the EC50 (human D2R/β-arrestin [1]) was greater than 30000 nM, the EC50 (human D2R/β-arrestin [2]) was 1000 to 10000 nM and the IC50 (human D2R/β-arrestin [3]) was 10000 to 30000 nM. For the same molecule, the IC50 (human D2R/β-arrestin [4]) was greater than 30000 nM.
In the case of `O=C(NC(c1ccc(F)cc1)c1ccccn1)C1CCN(Cc2cc3ccccc3o2)CC1` (stereo not drawn) [Compound 59], the EC50 (human D2R/β-arrestin [1]) is reported as greater than 30000 nM, the EC50 (human D2R/β-arrestin [2]) is reported as greater than 30000 nM and the IC50 (human D2R/β-arrestin [3]) is reported as greater than 30000 nM. The IC50 (human D2R/β-arrestin [4]) was 10000 to 30000 nM.
`O=C(NC(c1ccc(Cl)cc1)c1ccccn1)C1CCN(CCOc2ccc(F)cc2F)CC1` (single isomer, unassigned) [Compound 115a, N-((4-chlorophenyl)(pyridin-2-yl)methyl)-1-(2-(2,4-difluorophenoxy)ethyl)piperidine-4-carboxamide] showed an EC50 (human D2R/β-arrestin [1]) greater than 30000 nM, an EC50 (human D2R/β-arrestin [2]) of 100 to 1000 nM and an IC50 (human D2R/β-arrestin [3]) of 1000 to 10000 nM. It also gave an IC50 (human D2R/β-arrestin [4]) greater than 30000 nM.
Work on `COc1ccc(OCCN2CCC(C(=O)NC(c3ccc(Cl)cc3)c3ccccn3)CC2)cc1` (stereo not drawn) [Compound 13, N-((4-chlorophenyl)(pyridin-2-yl)methyl)-1-(2-(4-methoxyphenoxy)ethyl) piperidine-4-carboxamide] yielded an EC50 (human D2R/β-arrestin [1]) greater than 30000 nM, an EC50 (human D2R/β-arrestin [2]) of 1000 to 10000 nM and an IC50 (human D2R/β-arrestin [3]) of 1000 to 10000 nM. It also gave an IC50 (human D2R/β-arrestin [4]) greater than 30000 nM.
In the case of `O=C(NC(c1ccc(Cl)cc1)c1ccccn1)C1CCN(CCOc2ccncc2)CC1` (stereo not drawn) [Compound 142, N-((4-chlorophenyl)(pyridin-2-yl)methyl)-1-(2-(pyridin-4-yloxy)ethyl)piperidine-4-carboxamide], the EC50 (human D2R/β-arrestin [1]) is reported as greater than 30000 nM, the EC50 (human D2R/β-arrestin [2]) is reported as greater than 30000 nM and the IC50 (human D2R/β-arrestin [3]) is reported as 10000 to 30000 nM. It also gave an IC50 (human D2R/β-arrestin [4]) of 10000 to 30000 nM.
With `O=C(NC(c1ccc(Cl)cc1)c1ccccn1)C1CCN(CCOC2CCCCC2)CC1` (stereo not drawn) [Compound 17, N-((4-chlorophenyl) (pyridin-2-yl)methyl)-1-(2-(cyclohexyloxy)ethyl) piperidine-4-carboxamide] the EC50 (human D2R/β-arrestin [1]) was greater than 30000 nM, the EC50 (human D2R/β-arrestin [2]) was greater than 30000 nM and the IC50 (human D2R/β-arrestin [3]) was 1000 to 10000 nM. It also gave an IC50 (human D2R/β-arrestin [4]) of 100 to 1000 nM.
Work on `CN(CC1CCN(CCOc2ccccc2F)CC1)C(c1ccc2c(c1)OCO2)c1ccccn1` (stereo not drawn) [Compound 138, 1-(benzo[d][1,3]dioxol-5-yl)-N-((1-(2-(2-fluorophenoxy)ethyl)piperidin-4-yl)methyl)-N-methyl-1-(pyridin-2-yl)methanamine] yielded an EC50 (human D2R/β-arrestin [1]) greater than 30000 nM, an EC50 (human D2R/β-arrestin [2]) of 100 to 1000 nM and an IC50 (human D2R/β-arrestin [3]) of 100 to 1000 nM. It also gave an IC50 (human D2R/β-arrestin [4]) greater than 30000 nM.
`COc1cccc(C(NC(=O)C2CCN(CCOc3ccc(F)cc3F)CC2)c2ccccn2)c1` (single isomer, unassigned) [Compound 145b, 1-(2-(2,4-difluorophenoxy)ethyl)-N-((3-methoxyphenyl)(pyridin-2-yl)methyl)piperidine-4-carboxamide] gave an EC50 (human D2R/β-arrestin [1]) greater than 30000 nM, an EC50 (human D2R/β-arrestin [2]) greater than 30000 nM and an IC50 (human D2R/β-arrestin [3]) of 1000 to 10000 nM. The IC50 (human D2R/β-arrestin [4]) was 100 to 1000 nM.
In the case of `O=C(NC(c1ccc(F)cc1)c1ccccn1)C1CCN(CCOc2c(F)cccc2F)CC1` (stereo not drawn) [Compound 56, 1-(2-(2,6-difluorophenoxy)ethyl)-N-((4-fluorophenyl)(pyridin-2-yl)methyl) piperidine-4-carboxamide], the EC50 (human D2R/β-arrestin [1]) is reported as greater than 30000 nM, the EC50 (human D2R/β-arrestin [2]) is reported as greater than 30000 nM and the IC50 (human D2R/β-arrestin [3]) is reported as 100 to 1000 nM. The IC50 (human D2R/β-arrestin [4]) was 100 to 1000 nM.
`Clc1ccc(C(c2ccccn2)N2CC3CCN(CCOc4ccccc4)CC3C2)cc1` (stereo not drawn) [Compound 98, 2-((4-chlorophenyl)(pyridin-2-yl)methyl)-5-(2-phenoxyethyl)octahydro-1H-pyrrolo[3,4-c]pyridine] showed an EC50 (human D2R/β-arrestin [1]) of 100 to 1000 nM, an EC50 (human D2R/β-arrestin [2]) of less than 100 nM and an IC50 (human D2R/β-arrestin [3]) greater than 30000 nM. The IC50 (human D2R/β-arrestin [4]) was greater than 30000 nM.
Molecule `O=C(NC(c1ccc(Cl)cc1)c1ccc(F)cn1)C1CCN(CCOc2ccccc2F)CC1` (single isomer, unassigned) [Compound 92a, N-((4-chlorophenyl)(5-fluoropyridin-2-yl)methyl)-1-(2-(2-fluorophenoxy)ethyl)piperidine-4-carboxamide] has an EC50 (human D2R/β-arrestin [1]) greater than 30000 nM, an EC50 (human D2R/β-arrestin [2]) of 100 to 1000 nM and an IC50 (human D2R/β-arrestin [3]) of 100 to 1000 nM. It also gave an IC50 (human D2R/β-arrestin [4]) of 100 to 1000 nM.
For `CN(CC1(C)CCN(CCOc2ccccc2)CC1)C(c1ccc(Cl)cc1)c1ccccn1` (stereo not drawn) [Compound 131, 1-(4-chlorophenyl)-N-methyl-N-((4-methyl-1-(2-phenoxyethyl)piperidin-4-yl)methyl)-1-(pyridin-2-yl)methanamine], the EC50 (human D2R/β-arrestin [1]) was 1000 to 10000 nM, the EC50 (human D2R/β-arrestin [2]) was less than 100 nM and the IC50 (human D2R/β-arrestin [3]) was 1000 to 10000 nM. The IC50 (human D2R/β-arrestin [4]) was greater than 30000 nM.
